Measured values: patent US7173063B1, “Topoisomerase poisons for the treatment of proliferative disorders” (Fred Hutchinson Cancer Research Center, priority 2000, dated 2007)

Key:
Rat1a fibroblasts = assay: Effect of co-treatment with hydroxyurea (HU) on toxicity in Rat1a fibroblasts; assay type: cell-based, rat; conditions: six-hour exposure; 0, 0.25, 0.5 or 1 mM HU
Method: FIG. 6 illustrates the effect of exposure time and hydroxyurea on the toxicity of compound Ia and compound IIa. […] Rat1a fibroblasts were exposed to compound during growth for either four or six hours, the media was changed, then cells were grown for an appropriate period such that total incubation time was 96 hours, and processed as described in the Example below. […] The bar graph insets for each graph show growth inhibition by HU alone.
Cells were plated at a density of 500 cells per well in opaque 96 well plates (Packard) in a volume of 135 μL per well of the appropriate media. The plates were incubated overnight to allow cell adherence. Seven two-fold dilutions of the test compounds were added in a volume of 15 μL per well in triplicate, and 15 μL of media containing an appropriate concentration of DMSO was added to control wells in triplicate. Plates were incubated at 37° C. for 96 hours. The media was then replaced with 100 μL per well of the appropriate media containing 2 μCi/mL of (methyl-^3H) thymidine (Amersham Pharmacia Biotech), then plates were incubated for a further 24 hours at 37° C. Cells were washed three times with PBS, then 100 μL per well of scintillant was added (Microscint 20, Packard), and sealed plates were counted in a microplate reader (Packard Topcount). For suspension chicken cells, (methyl-^3H) thymidine was added directly to the drug-containing media at a concentration of 20 μCi/mL (comprising one tenth of the media volume) and incubated overnight. The suspension cells were transferred to a UniFilter GF/C plate (Packard) and washed with PBS in a plate washer (Packard). After drying, 25 μL per well of scintillant (Microscint 20, Packard) was added, and sealed plates were counted. Toxicity is expressed as a percentage of the control counts. For experiments involving shorter exposures to compounds, cells were grown in the presence of compound for the appropriate time, then the media was replaced with fresh drug-free media, and incubation continued for the remainder of 96 hours, followed by the normal tritiated thymidine uptake and washing protocol.
A six-hour exposure was used to test whether the toxicity of the same set of compounds is dependent on ongoing DNA synthesis. […] Thus, in contrast to camptothecin and topotecan, compounds Ia and IIa show no marked time dependency for toxicity (FIG. 6A) and are not inhibited by HU (FIG. 6B), indicating critical mechanistic differences between these compounds and camptothecin.

human Topo I = target: T1, human Topo I (Homo sapiens, UniProt P11387); assay: Toxicity in yeast overexpressing human Topo I (hTOP1) or htop1-vac mutant; assay type: cell-based; conditions: GAL promoter, galactose-induced, vs vector
T1 construct: expressed in transfected cells; host or cells: S. cerevisiae BY4705 (S288C background), plasmid phTOP1 under the GAL promoter, vector pRS416
T1 sequence (P11387 2-765): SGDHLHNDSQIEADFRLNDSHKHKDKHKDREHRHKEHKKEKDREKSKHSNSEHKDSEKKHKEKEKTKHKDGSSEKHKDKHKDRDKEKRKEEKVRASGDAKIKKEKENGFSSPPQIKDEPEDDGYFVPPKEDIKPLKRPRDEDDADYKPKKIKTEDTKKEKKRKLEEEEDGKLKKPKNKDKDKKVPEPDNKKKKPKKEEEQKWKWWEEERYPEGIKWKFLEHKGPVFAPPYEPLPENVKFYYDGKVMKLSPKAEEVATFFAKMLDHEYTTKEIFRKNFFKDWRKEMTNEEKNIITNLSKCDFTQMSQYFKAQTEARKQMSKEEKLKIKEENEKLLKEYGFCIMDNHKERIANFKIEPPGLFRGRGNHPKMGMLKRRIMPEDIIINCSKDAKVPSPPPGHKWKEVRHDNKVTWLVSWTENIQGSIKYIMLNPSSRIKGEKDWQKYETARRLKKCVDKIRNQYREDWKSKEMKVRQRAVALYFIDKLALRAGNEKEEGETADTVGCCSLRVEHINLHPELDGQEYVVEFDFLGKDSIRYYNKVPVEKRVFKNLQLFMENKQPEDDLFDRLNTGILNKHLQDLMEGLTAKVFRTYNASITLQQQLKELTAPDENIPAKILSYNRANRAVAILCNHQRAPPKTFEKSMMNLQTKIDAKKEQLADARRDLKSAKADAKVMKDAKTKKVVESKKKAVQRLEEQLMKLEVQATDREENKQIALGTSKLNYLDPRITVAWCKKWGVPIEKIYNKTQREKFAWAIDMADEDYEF
Source text: The strains are derived from the A364a genetic background, with the exception of BY4705, which is derived from the S288C background. Gene disruptions were generated by PCR fragment directed replacement (Baudin, et al., Nucleic Acids Research 21: 3329–30 (1993), Guldener, et al., Nucleic Acids Research 24: 2519–24 (1996)). Yeast overexpressing topoisomerase II was constructed by a PCR fragment directed promoter replacement of the topoisomerase II promoter with the yeast GPD promoter flanked upstream by the URA3 marker. All strains (except BY4705) bear the pleitropic drug sensitizing mutations erg6, pdr1, and pdr3 (Balzi, et al., Journal of Bioenergetics & Biomembranes 27: 71–6 (1995), Delaveau, et al, Molecular & General Genetics 244: 501–11 (1994), Gaber, et al., Molecular & Cellular Biology 9: 3447–56 (1989), Saunders, et al., Canadian Journal of Genetics & Cytology, 24: 493–503 (1982). Subik, et al, Current Genetics 10: 665–70 (1986)). The haploid yeast strain BY4705 (Brachmann, et al., Yeast 14: 115–32 (1998)) was used in the experiments described in FIG. 5. Plasmids expressing yeast or human topoisomerase I genes under the GAL promoter (Knab, et al., Journal of Biological Chemistry 268: 22322–30 (1993). Knab, et al., Journal of Biological Chemistry 270: 6141–8 (1995)) were transformed into BY4705 using standard procedures. […]

SMILES | change of toxicity caused by HU co-treatment (Rat1a fibroblasts) | inhibition of toxicity by co-treatment with HU (Rat1a fibroblasts) | effect of hTOP1 overexpression on toxicity (human Topo I)
O=c1c(Cl)c(Cl)cnn1CCCl [compound IIa] | slight accentuation of toxicity | not inhibited by co-treatment with HU | accentuates the toxicity
O=C(CCl)Nc1ccc(C(=O)N/N=C/c2ccc(Cl)cc2)cc1 [compound Ia] | slight accentuation of toxicity | not inhibited by co-treatment with HU | Little or no accentuation
